From BindingDB's records for doi:10.1021/jm000145g (University of Oxford, 2001) come the findings set out here.

Structures can show the parent of a compound that is named as a salt.

This assay concerns the target Prostate-specific antigen (Homo sapiens) (UniProt P07288). Description: Inhibition of Prostate specific antigen PSA (Serine Protease).

Prostate-specific antigen (Homo sapiens), sequence (P07288 whole entry, looked up): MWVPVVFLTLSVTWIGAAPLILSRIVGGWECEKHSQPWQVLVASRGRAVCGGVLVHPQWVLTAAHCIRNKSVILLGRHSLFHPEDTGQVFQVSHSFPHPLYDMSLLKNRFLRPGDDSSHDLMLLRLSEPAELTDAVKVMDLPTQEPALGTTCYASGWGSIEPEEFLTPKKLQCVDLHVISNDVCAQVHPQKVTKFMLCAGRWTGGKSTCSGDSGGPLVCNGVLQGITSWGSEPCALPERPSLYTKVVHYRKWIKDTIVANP

On to `O=C(OC[C@@H]1[C@H](Cc2ccccc2)C(=O)N1S(=O)(=O)c1ccc([N+](=O)[O-])cc1)c1ccccc1` [Benzoic acid 3-benzyl-1-(4-nitro-benzenesulfonyl)-4-oxo-azetidin-2-ylmethyl ester], for which the IC50 amounted to 11.5 µM.

With `O=C(O)c1ccc(COC(=O)[C@@H]2[C@H](Cc3ccccc3)C(=O)N2C(=O)c2ccccc2)cc1` [1-Benzoyl-3-benzyl-4-oxo-azetidine-2-carboxylic acid 4-carboxy-benzyl ester], the IC50 was found to be 24.3 µM. As to `Cc1ccc(S(=O)(=O)N2C(=O)[C@@H](Cc3ccccc3)[C@H]2COC(=O)c2ccccc2)cc1` [Benzoic acid 3-benzyl-4-oxo-1-(toluene-4-sulfonyl)-azetidin-2-ylmethyl ester], the IC50 turned out to be 4.79 µM. With `O=C(O)c1ccc(C(=O)OC[C@@H]2[C@H](Cc3ccccc3)C(=O)N2C(=O)c2ccccc2)cc1` [Terephthalic acid mono-(1-benzoyl-3-benzyl-4-oxo-azetidin-2-ylmethyl) ester], the IC50 was > 100 µM. Take `O=C(OC[C@@H]1[C@H](Cc2ccccc2)C(=O)N1C(=O)c1ccccc1)c1ccccc1` [Benzoic acid 1-benzoyl-3-benzyl-4-oxo-azetidin-2-ylmethyl ester]: half-maximal inhibition (IC50) required 1.59 µM. `Cc1ccc(S(=O)(=O)N2C(=O)[C@@H](Cc3ccccc3)[C@H]2C(=O)OCc2ccccc2)cc1` [3-Benzyl-4-oxo-1-(toluene-4-sulfonyl)-azetidine-2-carboxylic acid benzyl ester]: the IC50 was > 30 µM. In turn, `O=C(OCc1ccccc1)[C@@H]1[C@H](Cc2ccc(O)cc2)C(=O)N1C(=O)c1ccccc1` [1-Benzoyl-3-(4-hydroxy-benzyl)-4-oxo-azetidine-2-carboxylic acid benzyl ester] had a half-inhibitory concentration (IC50) of 9.14 µM. With `CCS(=O)(=O)N1C(=O)[C@@H](Cc2ccccc2)[C@H]1COC(=O)c1ccccc1` [Benzoic acid 3-benzyl-1-ethanesulfonyl-4-oxo-azetidin-2-ylmethyl ester] the figure was 2.19 µM; with `O=C(OC[C@@H]1[C@H](Cc2ccccc2)C(=O)N1S(=O)(=O)c1ccccc1)c1ccccc1` [Benzoic acid 1-benzenesulfonyl-3-benzyl-4-oxo-azetidin-2-ylmethyl ester], 3.08 µM.

For `O=C(OCc1ccccc1)c1cccc(CC(=O)N2C(=O)[C@@H](Cc3ccccc3)[C@H]2COC(=O)c2ccccc2)c1` [3-[2-(2-Benzoyloxymethyl-3-benzyl-4-oxo-azetidin-1-yl)-2-oxo-ethyl]-benzoic acid benzyl ester], the IC50 was > 100 µM.

In turn, `NCc1ccc(COC(=O)[C@@H]2[C@H](Cc3ccccc3)C(=O)N2C(=O)Cc2cccc(C(=O)OCc3ccccc3)c2)cc1` [3-Benzyl-1-[2-(3-benzyloxycarbonyl-phenyl)-acetyl]-4-oxo-azetidine-2-carboxylic acid 4-aminomethyl-benzyl ester; TFA] gave an IC50 of 1.34 µM. As to `O=C(O)c1ccc(COC(=O)[C@@H]2[C@H](Cc3ccccc3)C(=O)N2C(=O)Cc2cccc(C(=O)O)c2)cc1` [3-Benzyl-1-[2-(3-carboxy-phenyl)-acetyl]-4-oxo-azetidine-2-carboxylic acid 4-carboxy-benzyl ester], the IC50 is > 30 µM.
